From article PMC9953660, “Using ΔK280 TauRD Folding Reporter Cells to Screen TRKB Agonists as Alzheimer’s Disease Treatment Strategy” (Biomolecules, 2023)
Where two headings read alike, the source gives them in different places.

Experiments:
[1] = target: T1, TRKB extracellular domain (TRKB-ECD) (Homo sapiens, UniProt Q16620); parameters: method as in PMID 25143381; details: read-out: KD (TRKB-ECD binding affinity), reported value; cited from earlier work
T1 construct: TRKB-ECD (marked in red, C^32-E^429, XP_016870240); His (C); made in house; host or cells: Pichia pastoris

[2] = target: T1, TRKB extracellular domain (TRKB-ECD); experiment: Tryptophan fluorescence quenching assay; details: Pichia pastoris-expressed TRKB-ECD, 0–1000 nM, excitation 295 nm, emission 330 nm, room temperature; read-out: KD (TRKB-ECD binding affinity)
Method: The interaction between the N-terminal extracellular domain of TRKB (TRKB-ECD) and 7,8-DHF (as positive control; [35]), ZN-015, VB-030 or VB-037 was evaluated with tryptophan fluorescence titration. TRKB-ECD-His protein was expressed in the Pichia expression system (Invitrogen) and purified as stated. Intrinsic tryptophan fluorescence spectra with titration of a different concentration of compounds (0–1000 nM) were recorded by fluorescence spectrophotometer F-7000 (Hitachi, Tokyo, Japan), with excitation wavelength 295 nm and emission wavelength in the range of 300–400 nm. The calculation of dissociation constant (KD) between the 7,8-DHF or ZN/VB compound and TRKB was described in a previous report.

[3] = target: T2, E. coli-expressed ΔK280 TauRD protein (Homo sapiens, UniProt P10636, DEL597-597); experiment: Thioflavin T fluorescence ΔK280 TauRD aggregation assay; format: biochemical; details: TauRD protein 20 μM, 48 h at 37 °C; read-out: EC50 inhibiting ΔK280 TauRD aggregation
T2 construct: TauRD (Q^244-E^372 of Tau, NP_005901) aggregation; N-terminal Met (N); made in house; host or cells: E. coli
Method: The anti-aggregation activity of congo red (positive control) and ZN/VB compounds (5–20 μM) was assessed using E. coli-expressed ΔK280 TauRD protein [33] and thioflavin T (Sigma-Aldrich) fluorescence assay. The trend of ΔK280 TauRD amyloid aggregate formation depicted with enhanced and red-shifted fluorescence was recorded by a FLx800 microplate fluorescence reader (BioTek Instruments), where the procedure was previously reported in detail.

[4] = MTT cell viability assay; format: cell-based; details: human
Method: Human neuroblastoma SH-SY5Y cells with inducible ΔK280 TauRD-DsRed expression were maintained in DMEM/F-12 supplemented with fetal bovine serum (FBS, 10%) (Thermo Scientific, Waltham, MA, USA), penicillin/streptomycin (100 U/mL), selection antibiotics hygromycin (100 μg/mL) and blasticidin (5 μg/mL) (InvivoGen, San Diego, CA, USA), and 1.5 g/l sodium bicarbonate. Cells were cultured at 37 °C in a 5% CO2 atmosphere. The cell viability of ZN and VB compounds (concentration range: 0.1–100 μM) was evaluated by a 3-(4,5-dimethylthiazol-2-yl)-2,5-diphenyltetrazolium bromide (MTT; Sigma-Aldrich) colorimetric assay. The absorbance at 570 nm was recorded by a Multiskan™ GO Microplate Spectrophotometer (Thermo Scientific).

[5] = Cell number / cell survival in induced ΔK280 TauRD-DsRed SH-SY5Y cells (high-content); format: cell-based, human; details: human; induced SH-SY5Y cells expressing ΔK280 TauRD-DsRed for 6 days, 2–10 μM tested; read-out: IC50 cytotoxicity based on cell number
Method: (§1) ΔK280 TauRD-DsRed SH-SY5Y cells were plated in the presence of 10 μM retinoid acid (RA; Sigma-Aldrich) to promote neuronal differentiation. The next day, cells were added with congo red or ZN/VB compounds (2–10 μM) for 8 h pretreatment, followed by inducing ΔK280 TauRD-DsRed expression with doxycycline (2 μg/mL). On day 8, cell nuclei were stained with Hoechst 33342 (0.1 μg/mL; Thermo Scientific), and cell images acquired using ImageXpress Micro Confocal High-Content Imaging System (Molecular Devices, San Jose, CA, USA) with DAPI (4′,6-diamidino-2-phenylindole, for nuclei) and TRITC (tetramethylrhodamine, for DsRed) fluorescence filter sets. To detect ROS changes, 10 μM compound-treated cells were stained with Hoechst 33342 and 2′,7′-dichlorodihydrofluorescein diacetate (H2DCFDA, 10 μM) fluorescein (Invitrogen, Carlsbad, CA, USA), and cell images captured using DAPI and FITC (fluorescein isothiocyanate, for DCF) filters. For assessing differential neurite outgrowth, 10 μM compound-treated cells were fixed (paraformaldehyde, 4%), permeabilized (Triton X-100, 0.3%), and stained with class III β-tubulin (TUBB3, 1:1000) primary antibody (#802001, BioLegend, San Diego, CA, USA), followed by donkey anti-rabbit Alexa Fluor® 555 secondary antibody (1:1000; #A-31572, Invitrogen) and DAPI (0.1 μg/mL; Sigma-Aldrich) stains. The nuclei and neurite images were acquired with DAPI and TRITC fluorescence filters, respectively. All analyses of images were performed using MetaXpress software (Molecular Device).

[6] = system: SH-SY5Y cells expressing ΔK280 TauRD-DsRed; experiment: as above; format: cell-based, human; details: induced ΔK280 TauRD-DsRed SH-SY5Y, 2–10 μM
Method: as §1

[7] = DPPH free-radical scavenging assay; format: physicochemical; details: 10–160 μM, compared to kaempferol
Method: Free-radical scavenging activity of kaempferol (positive control) and ZN/VB compounds (10–160 μM) was measured using a 1,1-diphenyl-2-picrylhydrazyl (DPPH; Sigma-Aldrich) photometric assay as stated. The absorbance at 517 nm was assessed by a Multiskan™ GO Microplate Spectrophotometer (Thermo Scientific). An oxygen radical absorbance capacity (ORAC) assay of kaempferol and ZN/VB compounds (4–100 μM) was conducted according to the manufacturer’s instructions (OxiSelect™; Cell Biolabs, San Diego, CA, USA). The decrease of fluorescence intensity was monitored by a FLx800 microplate fluorescence reader (BioTek Instruments, Winooski, VT, USA). The ORAC activity was quantified as a trolox-equivalent antioxidant capacity.

[8] = system: ROS in ΔK280 TauRD-DsRed SH-SY5Y cells; experiment: High-content assessment of cellular ROS (H2DCFDA); format: cell-based, human; details: 10 μM; uninduced = 100%, induced untreated 123%; range over compounds
Method: as §1, with “For assessing differential neurite outgrowth, 10 μM compound-treated cells were fixed (paraformaldehyde, 4%), permeabilized (Triton X-100, 0.3%), and stained with class III β-tubulin (TUBB3, 1:1000) primary antibody (#802001, BioLegend, San Diego, CA, USA), followed by donkey anti-rabbit Alexa Fluor® 555 secondary antibody (1:1000; #A-31572, Invitrogen) and DAPI (0.1 μg/mL; Sigma-Aldrich) stains.” left out, “All analyses of images were performed using MetaXpress software (Molecular Device).” left out

[9] = target: T3, ΔK280 TauRD-DsRed (Homo sapiens, UniProt P10636, DEL597-597); experiment: High-content DsRed fluorescence assay of ΔK280 TauRD-DsRed folding reporter cells; format: cell-based; details: 10 μM; untreated cells = 100%; 8 h pretreatment, 6 day Dox induction
T3 construct: TauRD (Q^244-E^372 of Tau, NP_005901) aggregation; expressed in transfected cells; host or cells: SH-SY5Y (Tet-On, doxycycline-inducible)
Method: as §1, with “For assessing differential neurite outgrowth, 10 μM compound-treated cells were fixed (paraformaldehyde, 4%), permeabilized (Triton X-100, 0.3%), and stained with class III β-tubulin (TUBB3, 1:1000) primary antibody (#802001, BioLegend, San Diego, CA, USA), followed by donkey anti-rabbit Alexa Fluor® 555 secondary antibody (1:1000; #A-31572, Invitrogen) and DAPI (0.1 μg/mL; Sigma-Aldrich) stains.” left out, “All analyses of images were performed using MetaXpress software (Molecular Device).” left out

T2 sequence (P10636 with tags, fused parts or gaps isoform P10636-8 DEL280-280): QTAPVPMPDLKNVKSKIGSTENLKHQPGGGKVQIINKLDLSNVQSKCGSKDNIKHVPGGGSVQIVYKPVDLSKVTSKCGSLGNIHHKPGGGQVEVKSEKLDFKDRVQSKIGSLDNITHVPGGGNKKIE
T1 sequence (Q16620 32-429): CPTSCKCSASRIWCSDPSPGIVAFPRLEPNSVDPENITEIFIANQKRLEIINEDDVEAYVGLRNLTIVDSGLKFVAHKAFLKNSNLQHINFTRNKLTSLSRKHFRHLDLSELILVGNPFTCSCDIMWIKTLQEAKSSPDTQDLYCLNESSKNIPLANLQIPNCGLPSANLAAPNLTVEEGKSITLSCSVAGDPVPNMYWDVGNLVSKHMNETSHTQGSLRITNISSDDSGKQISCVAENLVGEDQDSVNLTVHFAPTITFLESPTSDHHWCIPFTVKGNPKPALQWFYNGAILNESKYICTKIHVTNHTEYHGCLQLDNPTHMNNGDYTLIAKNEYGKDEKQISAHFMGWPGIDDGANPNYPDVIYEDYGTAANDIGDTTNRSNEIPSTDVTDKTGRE
T3 sequence (P10636 with tags, fused parts or gaps isoform P10636-8 DEL280-280): as the sequence (P10636 with tags, fused parts or gaps isoform P10636-8 DEL280-280) above

Kd [2] | EC50 [3] | Compound | IC50 at 24 h [4] | IC50 at 6 days [5] | other results
0.0134 ± 0.0084 µM |  | O=c1cc(-c2ccccc2)oc2c(O)c(O)ccc12 [7,8-DHF, 7,8-dihydroxy flavone, reference compound] |  |  | Kd [1]: 0.0121 ± 0.0016 µM
 |  | Cc1ccc2[nH]c(=O)c(C(=O)/C=C/c3nc4ccccc4[nH]3)c(-c3ccccc3)c2c1 [VB-031, (E)-3-(3-(1H-benzo[d]imidazol-2-yl)acryloyl)-6-methyl-4-phenylquinolin-2(1H)-one] | 6 µM | < 2 µM | percentage of cell survival [6]: less than 75%
0.0043 ± 0.0052 µM | 13.1 µM | O=[N+]([O-])c1cccc2nc(/C=C/c3cc4ccccc4nc3N3CCOCC3)ccc12 [VB-037, (E)-4-(3-(2-(5-nitroquinolin-2-yl)vinyl)quinolin-2-yl)morpholine] | > 100 µM | 23 µM | DPPH free radical scavenging activity [7]: very weak DPPH free radical scavenging activity; ROS level (DCF fluorescence) [8]: no effect on reducing ROS
 |  | O=C(Nc1cccc(S(=O)(=O)NC2=NCCCCC2)c1)c1cc(-c2ccncc2)nc2ccccc12 [VB-041, 2-(pyridin-4-yl)-N-(3-(N-(3,4,5,6-tetrahydro-2H-azepin-7-yl)sulfamoyl)phenyl)quinoline-4-carboxamide] | > 100 µM | > 10 µM | 
 |  | O=C(O)COc1cc(O)c2c(=O)cc(-c3ccccc3)oc2c1 [ZN-006, 2-((5-hydroxy-4-oxo-2-phenyl-4H-chromen-7-yl)oxy)acetic acid] | > 100 µM | > 10 µM | 
 |  | COc1cccc2oc(C(=O)c3ccccc3)cc12 [ZN-013, (4-methoxybenzofuran-2-yl)(phenyl)methanone] | > 100 µM | 27 µM | 
 |  | CCOC(=O)c1cc2c(O)cccc2oc1=O [ZN-014, ethyl 5-hydroxy-2-oxo-2H-chromene-3-carboxylate] |  | > 10 µM | IC50 at 24 h ([4]; uninduced ΔK280 TauRD-DsRed SH-SY5Y, 0.1–100 μM, 24 h, read-out: IC50 cytotoxicity (MTT)): > 100 µM
 | 13.9 µM | Nc1c(/N=N/c2ccc(-c3ccc(/N=N/c4cc(S(=O)(=O)O)c5ccccc5c4N)cc3)cc2)cc(S(=O)(=O)O)c2ccccc12 [congo red, Congo red, reference compound] |  | > 10 µM | DsRed fluorescence [9]: 114%

Compound | Kd [2] | EC50 [3] | IC50 at 24 h [4] | IC50 at 6 days [5] | other results
Cc1ccc(-c2cc(-c3ccncc3)nc3ccccc23)cc1 [VB-030, 2-(pyridin-4-yl)-4-(p-tolyl)quinoline] | 0.011 ± 0.0024 µM | 20.3 µM | > 100 µM | > 10 µM | 
